We go through eleven molecules from patent US9518046B2 (Calitor Sciences, LLC, priority 2015, dated 2016).

Series [1] can be described thus: Compound stability in rat liver microsomes. Particulars: for CLint scaled at 5 μM: liver microsomes, pH 7.4, in vivo CLint extrapolated from rat liver microsome incubation; for half-life at 5 μM: rat liver microsomes 0.5 mg protein/mL, compound 5 μM, NADPH 1.0 mM, pH 7.4, 37° C., read-out: Rat T1/2. In kind it is in vitro ADME. The procedure:
(§1) Human or rat liver microsomes incubations were conducted in duplicate in polypropylene tubes. The typical incubation mixtures consisted of human or rat liver microsomes (0.5 mg protein/mL), compounds of interest (5 μM) and NADPH (1.0 mM) in a total volume of 200 μL potassium phosphate buffer (PBS, 100 mM, pH 7.4). Compounds were dissolved in DMSO and diluted with PBS such that the final concentration of DMSO was 0.05%. The enzymatic reactions were commenced with the addition of protein after a 3-min preincubation and incubated in a water bath open to the air at 37° C. Reactions were terminated at various time points (0, 5, 10, 15, 30, 60 min) by adding equal volume of ice-cold acetonitrile. The samples were stored at −80° C. until LC/MS/MS assays.
(§2) The concentrations of compounds in the incubation mixtures of human or rat liver microsomes were determined by a LC/MS/MS method. The ranges of the linearity in the concentration range were determined for each tested compounds.
(§3) A parallel incubation was performed using denatured microsomes as the negative control, and reactions were terminated at various time points (0, 15, 60 min) after incubation at 37° C.
(§4) Dextromethorphan (70 μM) was selected as the positive control, and reactions were terminated at various time points (0, 5, 10, 15, 30, 60 min) after incubation at 37° C. Both positive and negative control samples were included in each assay to ensure the integrity of the microsomal incubation system.
(§5) The concentrations of compounds in human or rat liver microsome incubations were plotted as a percentage of the relevant zero time point control for each reaction. The in vivo CLint were extrapolated (ref.: Naritomi, Y.; Terashita, S.; Kimura, S.; Suzuki, A.; Kagayama, A.; and Sugiyama, Y.; Prediction of human hepatic clearance from in vivo animal experiments and in vitro metabolic studies with liver microsomes from animals and humans. Drug Metab. Dispos., 2001, 29: 1316-1324).

A short description of series [2]: Pharmacokinetics after intravenous and oral administration in rats. Format: in vivo. Particulars: for CL/F / bioavailability: Rats; for CL/F: iv dosing, dose 1 mg/kg (0.5 for Ex. 1, 10, 11, 35; 0.48 for Ex. 24); for AUC(0-t) / half-life / Vd / bioavailability: rat, plasma; for AUC(0-t) / half-life / Vd: iv, 1 mg/kg; for Vd: read-out: Vss; for bioavailability: oral (p.o.) generally 5 or 10 mg/kg versus iv dosing. An outline of the steps: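 Dosing used solution, suspension or capsule formulations: 1 or 2 mg/kg IV in all species; PO 5 or 10 mg/kg in mice and rats, 10 mg/kg in dogs and monkeys. Plasma sampled from 0.083 or 0.25 h up to 24 h post-dose; concentrations determined by LC/MS/MS in MRM mode.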

The nature of series [3]: Compound stability in human liver microsomes. Format: in vitro ADME. Particulars: for half-life at 5 μM: human liver microsomes 0.5 mg protein/mL, compound 5 μM, NADPH 1.0 mM, pH 7.4, 37° C., read-out: Human T1/2; for CLint scaled at 5 μM: liver microsomes, pH 7.4, in vivo CLint extrapolated from human liver microsome incubation. The procedure:
as §1, §2, §3, §4, §5

A further series has as its target T1, PI3K (p110δ/p85α) (h) (Homo sapiens, UniProt O00329).
T1 construct: purchased Millipore UK Ltd
Put plainly: PI3K (p110δ/p85α) (h) non-radioactive HTRF kinase assay. Particulars: Kinase inhibition data; performed at Millipore UK Ltd. In kind it is biochemical. The protocol:
The above assay procedure can be used to determine the IC50 for inhibition and/or the inhibition constant, Ki.
PI3K (p110δ/p85α) (h) [Non-Radioactive Assay]
PI3K (p110δ/p85α) (h) is incubated in assay buffer containing 10 μM phosphatidylinositol-4, 5-bisphosphate and MgATP (concentration as required). The reaction is initiated by the addition of the MgATP mix. After incubation for 30 minutes at room temperature, the reaction is stopped by the addition of stop solution containing EDTA and biotinylated phosphatidylinositol-3,4,5-trisphosphate. Finally, detection buffer is added, which contains europium-labelled anti-GST monoclonal antibody, GST-tagged GRP1 PH domain and streptavidin-allophycocyanin. The plate is then read in timeresolved fluorescence mode and the homogenous time-resolved fluorescence (HTRF) signal is determined according to the formula HTRF=10000×(Em665 nm/Em620 nm).
The kinase assays described herein were performed at Millipore UK Ltd, Dundee Technology Park, Dundee DD2 1SW, UK.

T1 sequence (O00329 whole entry): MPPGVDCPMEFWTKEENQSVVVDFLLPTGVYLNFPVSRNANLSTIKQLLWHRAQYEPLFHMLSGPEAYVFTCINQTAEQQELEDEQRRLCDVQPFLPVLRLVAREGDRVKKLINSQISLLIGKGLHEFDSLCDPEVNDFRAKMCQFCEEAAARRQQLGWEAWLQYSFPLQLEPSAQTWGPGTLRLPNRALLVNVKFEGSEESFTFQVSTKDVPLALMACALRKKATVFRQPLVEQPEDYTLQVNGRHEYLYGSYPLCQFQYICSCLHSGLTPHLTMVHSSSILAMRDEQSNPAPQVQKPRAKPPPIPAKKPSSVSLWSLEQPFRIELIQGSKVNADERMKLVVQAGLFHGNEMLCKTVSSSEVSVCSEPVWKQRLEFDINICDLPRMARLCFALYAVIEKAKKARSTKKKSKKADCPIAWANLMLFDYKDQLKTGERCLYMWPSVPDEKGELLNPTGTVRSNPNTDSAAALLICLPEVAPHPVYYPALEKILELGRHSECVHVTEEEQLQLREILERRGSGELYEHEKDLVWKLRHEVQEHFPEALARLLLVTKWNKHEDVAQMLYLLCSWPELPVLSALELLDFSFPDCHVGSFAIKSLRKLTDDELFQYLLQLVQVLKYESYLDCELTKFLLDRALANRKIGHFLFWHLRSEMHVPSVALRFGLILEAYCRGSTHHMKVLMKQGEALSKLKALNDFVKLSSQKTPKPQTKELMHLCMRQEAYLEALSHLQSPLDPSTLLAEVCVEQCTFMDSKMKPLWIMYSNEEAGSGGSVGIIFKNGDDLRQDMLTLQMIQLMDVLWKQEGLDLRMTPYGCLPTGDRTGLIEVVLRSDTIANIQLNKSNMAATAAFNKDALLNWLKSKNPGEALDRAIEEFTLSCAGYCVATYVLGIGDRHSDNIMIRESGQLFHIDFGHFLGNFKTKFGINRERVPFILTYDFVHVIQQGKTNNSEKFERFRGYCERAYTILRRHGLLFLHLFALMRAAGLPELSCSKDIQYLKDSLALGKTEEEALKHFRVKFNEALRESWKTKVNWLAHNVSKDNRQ
T1 sequence (P27986 whole entry partner): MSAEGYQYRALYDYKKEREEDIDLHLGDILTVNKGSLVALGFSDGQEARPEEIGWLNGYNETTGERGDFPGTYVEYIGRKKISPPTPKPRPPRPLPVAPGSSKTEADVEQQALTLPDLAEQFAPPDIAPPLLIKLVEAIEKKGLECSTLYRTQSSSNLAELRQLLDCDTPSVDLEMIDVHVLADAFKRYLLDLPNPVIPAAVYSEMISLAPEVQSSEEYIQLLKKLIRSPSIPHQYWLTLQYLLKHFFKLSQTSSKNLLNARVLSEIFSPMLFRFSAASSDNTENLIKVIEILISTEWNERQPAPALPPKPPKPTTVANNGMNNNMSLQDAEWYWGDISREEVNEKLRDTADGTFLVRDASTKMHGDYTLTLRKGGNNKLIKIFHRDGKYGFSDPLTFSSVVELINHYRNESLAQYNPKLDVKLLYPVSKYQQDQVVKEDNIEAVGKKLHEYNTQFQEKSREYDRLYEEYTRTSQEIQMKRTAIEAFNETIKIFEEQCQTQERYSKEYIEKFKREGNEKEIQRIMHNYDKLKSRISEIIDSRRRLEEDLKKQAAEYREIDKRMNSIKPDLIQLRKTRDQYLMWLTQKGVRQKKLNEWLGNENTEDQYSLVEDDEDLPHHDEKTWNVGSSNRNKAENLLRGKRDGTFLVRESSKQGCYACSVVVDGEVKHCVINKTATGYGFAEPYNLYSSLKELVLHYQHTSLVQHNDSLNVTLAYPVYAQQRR

`CC[C@H](Nc1ncnc(N)c1-c1nnn(C)n1)c1nc2cccc(-c3cnn(C)c3)c2c(=O)n1C1CC1` [Ex. 78, (S)-2-(1-((6-amino-5-(2-methyl-2H-tetrazol-5-yl)pyrimidin-4-yl)amino)propyl)-3-cyclopropyl-5-(1-methyl-1H-pyrazol-4-yl)quinazolin-4(3H)-one]: in series [1], the CLint scaled (as a rule, the capacity of the preparation to metabolise the compound, expressed as a volume cleared per time) at 5 μM was 38.3 mL/min/kg and the half-life at 5 μM was 1.08 h. Besides, in series [2], the CL/F (usually clearance divided by bioavailability, as obtained after extravascular dosing) amounted to 20.8 mL/min/kg; the AUC(0-t) (usually the area under the concentration-time curve up to a stated or last time point) was found to be 783 ng·h/mL; the half-life is 1.27 h; the Vd stood at 2.18 L/kg. Moreover, in series [2], the bioavailability turned out to be 67.7%. In addition, in series [3], the half-life at 5 μM is 1 h and the CLint scaled at 5 μM is 28.9 mL/min/kg.

On to `Cc1nnc(-c2c(N)ncnc2N[C@@H](C)c2nc3cccc(Cl)c3c(=O)n2C2CC2)o1` [Ex. 70, (S)-2-(1-((6-amino-5-(5-methyl-1,3,4-oxadiazol-2-yl)pyrimidin-4-yl)amino)ethyl)-5-chloro-3-cyclopropylquinazolin-4(3H)-one], for which, in series [1], the intrinsic clearance (CLint scaled) at 5 μM is 37.8 mL/min/kg and the half-life at 5 μM is 1.1 h. Also, in series [2], the CL/F came out at 44 mL/min/kg, the area under the curve AUC(0-t) stood at 399 ng·h/mL, the half-life is 0.85 h and the Vd was 3.3 L/kg. For the same molecule, in series [2], the bioavailability worked out at 96.4%. For the same molecule, in series [3], the half-life at 5 μM came to 1.1 h and the CLint scaled at 5 μM is 26.3 mL/min/kg. Further, the IC50 (in general, the concentration that gives 50% inhibition) at PI3K (p110δ/p85α) (h) came out at 50 nM.

As to `Cc1nnc(-c2c(N)ncnc2N[C@@H](C)c2nc3cccc(-c4cnn(C)c4)c3c(=O)n2C2CC2)o1` [Ex. 67, (S)-2-(1-((6-amino-5-(5-methyl-1,3,4-oxadiazol-2-yl)pyrimidin-4-yl)amino)ethyl)-3-cyclopropyl-5-(1-methyl-1H-pyrazol-4-yl)quinazolin-4(3H)-one], in series [1], the CLint scaled at 5 μM was 10.1 mL/min/kg and the half-life at 5 μM was determined as 4.08 h. Also, in series [2], the CL/F is 23.2 mL/min/kg, the AUC(0-t) was 777 ng·h/mL, the half-life is 1.14 h and the Vd was determined as 1.86 L/kg. Further, the bioavailability in series [2] turned out to be 71.7%. Further, in series [3], the half-life at 5 μM worked out at 1.58 h and the CLint scaled at 5 μM is 18.3 mL/min/kg. Besides, the IC50 on PI3K (p110δ/p85α) (h) came to 47 nM.

Regarding `Cc1nc(-c2c(N)ncnc2N[C@@H](C)c2nc3cccc(-c4cnn(C)c4)c3c(=O)n2-c2ccccc2)no1` [Ex. 77, (S)-2-(1-((6-amino-5-(5-methyl-1,2,4-oxadiazol-3-yl)pyrimidin-4-yl)amino)ethyl)-5-(1-methyl-1H-pyrazol-4-yl)-3-phenylquinazolin-4(3H)-one], in series [1], the CLint scaled at 5 μM is 21.2 mL/min/kg and the half-life at 5 μM was 1.95 h. For the same molecule, in series [2], the CL/F worked out at 5.33 mL/min/kg, the AUC(0-t) came to 2920 ng·h/mL, the half-life is 1.76 h and the Vd turned out to be 0.78 L/kg. Further, in series [2], the bioavailability was found to be 109%. In addition, in series [3], the half-life at 5 μM amounted to 1.36 h and the CLint scaled at 5 μM is 21.3 mL/min/kg.

Consider `Cc1nc(-c2c(N)ncnc2N[C@@H](C)c2nc3cccc(-c4cnn(C)c4)c3c(=O)n2C2CC2)no1` [Ex. 80, (S)-2-(1-((6-amino-5-(5-methyl-1,2,4-oxadiazol-3-yl)pyrimidin-4-yl)amino)ethyl)-3-cyclopropyl-5-(1-methyl-1H-pyrazol-4-yl)quinazolin-4(3H)-one], for which, in series [1], the CLint scaled at 5 μM is 37.7 mL/min/kg and the half-life at 5 μM turned out to be 1.1 h. In series [3], the half-life at 5 μM stood at 1.07 h and the CLint scaled at 5 μM is 27 mL/min/kg.

As to `C[C@H](Nc1ncnc(N)c1-c1nnn(C)n1)c1nc2cccc(-c3cnn(C)c3)c2c(=O)n1-c1ccccc1` [Ex. 76, (S)-2-(1-((6-amino-5-(2-methyl-2H-tetrazol-5-yl)pyrimidin-4-yl)amino)ethyl)-5-(1-methyl-1H-pyrazol-4-yl)-3-phenylquinazolin-4(3H)-one], in series [1], the CLint scaled at 5 μM was 8.61 mL/min/kg and the half-life at 5 μM was 4.81 h. In addition, in series [2], the CL/F was determined as 6.5 mL/min/kg, the AUC(0-t) turned out to be 2510 ng·h/mL, the half-life was 1.45 h and the Vd was 0.77 L/kg. Also, the bioavailability in series [2] was 105%. In series [3], the half-life at 5 μM came to 4.49 h and the intrinsic metabolic clearance (CLint scaled) at 5 μM was 6.46 mL/min/kg.

In series [2], `CC[C@H](Nc1ncnc(N)c1-c1ncc(C)o1)c1nc2cccc(Cl)c2c(=O)n1C1CC1` [Ex. 7, (S)-2-(1-((6-amino-5-(5-methyloxazol-2-yl)pyrimidin-4-yl)amino)propyl)-5-chloro-3-cyclopropylquinazolin-4(3H)-one] gave a CL/F of 54.8 mL/min/kg.

`CC[C@H](Nc1ncnc(N)c1-c1nnc(C)o1)c1nc2cccc(C)c2c(=O)n1-c1ccccc1C` (single isomer, unassigned) [Ex. 31]: the CL/F in series [2] is 64.8 mL/min/kg.

`CC[C@H](Nc1ncnc(N)c1-c1nc(C)co1)c1nc2cccc(Cl)c2c(=O)n1C1CC1` [Ex. 52, (S)-2-(1-((6-amino-5-(4-methyloxazol-2-yl)pyrimidin-4-yl)amino)propyl)-5-chloro-3-cyclopropylquinazolin-4(3H)-one]: the CL/F in series [2] turned out to be 85.7 mL/min/kg.

For `CC[C@H](Nc1ncnc(N)c1-c1noc(C)n1)c1nc2cccc(-c3cnn(C)c3)c2c(=O)n1C1CC1` [Ex. 79, (S)-2-(1-((6-amino-5-(5-methyl-1,2,4-oxadiazol-3-yl)pyrimidin-4-yl)amino)propyl)-3-cyclopropyl-5-(1-methyl-1H-pyrazol-4-yl)quinazolin-4(3H)-one], in series [1], the CLint scaled at 5 μM is 17.3 mL/min/kg and the half-life at 5 μM was found to be 2.4 h. In addition, in series [2], the CL/F was 32.2 mL/min/kg, the AUC(0-t) worked out at 511 ng·h/mL, the half-life was 1.36 h and the Vd was determined as 4.25 L/kg. For the same molecule, the bioavailability in series [2] was found to be 78.7%. Further, in series [3], the half-life at 5 μM is 0.821 h and the CLint scaled at 5 μM is 35.3 mL/min/kg.

Regarding `CC[C@H](Nc1ncnc(N)c1-c1ncnn1C)c1nc2cccc(Cl)c2c(=O)n1-c1ccccc1` [Ex. 10, 2-((1S)-1-((6-amino-5-(1-methyl-H-1,2,4-triazol-5-yl)pyrimidin-4-yl)amino)propyl)-5-chloro-3-phenylquinazolin-4(3H)-one], the CL/F in series [2] came to 3.5 mL/min/kg.
